According to PubChem BioAssay AID330 (DTP/NCI, 2004):
Values joined by “and” are separate entries in the source; they are usually repeats but may differ in a detail not shown here. Identical values can stand only once. Inconclusive results and toxic doses are left out.

Tested on: P388 leukemia ip, CD2F1 mice, survival T/C
Assay: NCI In Vivo Anticancer Drug Screen. Data for tumor model P388 Leukemia (intraperitoneal) in CD2F1 (CDF1) mice
Settings: endpoint: median survival time, higher = longer survival
Method in brief: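 Mice carrying the transplanted tumor received test compound or vehicle. Survival was recorded in each group, and the value is the treated-group measurement divided by that of the vehicle-treated control group.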

[1] = dose: 50.0 mg/kg/injection, schedule: Q01DX009 (ip), vehicle: saline with Tween-80
[2] = dose: 100.0 mg/kg/injection, schedule: Q01DX009 (ip), vehicle: saline with Tween-80
[3] = dose: 50.0 mg/kg/injection, schedule: Q01DX005 (ip), vehicle: saline with Tween-80
[4] = dose: 50.0 mg/kg/injection, schedule: Q01DX009 (ip), vehicle: Klucel (hydroxypropylcellulose) (HPC)
[5] = dose: 100.0 mg/kg/injection, schedule: Q01DX009 (ip), vehicle: Klucel (hydroxypropylcellulose) (HPC)
[6] = dose: 200.0 mg/kg/injection, schedule: Q01DX009 (ip), vehicle: Klucel (hydroxypropylcellulose) (HPC)
[7] = dose: 100.0 mg/kg/injection, schedule: Q04DX003 (ip), vehicle: Klucel (hydroxypropylcellulose) (HPC)
[8] = dose: 200.0 mg/kg/injection, schedule: Q04DX003 (ip), vehicle: Klucel (hydroxypropylcellulose) (HPC)
[9] = dose: 12.5 mg/kg/injection, schedule: Q01DX005 (ip), vehicle: saline with Tween-80
[10] = dose: 60.0 mg/kg/injection, schedule: Q01DX005 (ip), vehicle: Klucel (hydroxypropylcellulose) (HPC)
[11] = dose: 120.0 mg/kg/injection, schedule: Q01DX005 (ip), vehicle: Klucel (hydroxypropylcellulose) (HPC)
[12] = dose: 240.0 mg/kg/injection, schedule: Q01DX005 (ip), vehicle: Klucel (hydroxypropylcellulose) (HPC)

## N#Cc1ccccc1NN=Nc1ccccc1-c1nc(N)nc(N)n1
dose: 12.0 mg/kg/injection, schedule: Q04DX003 (ip), vehicle: saline
  T/C: 113 % of control
dose: 25.0 mg/kg/injection, schedule: Q04DX003 (ip), vehicle: saline
  T/C: 113 % of control
dose: 50.0 mg/kg/injection, schedule: Q04DX003 (ip), vehicle: saline
  T/C: 181 % of control

## CC1(c2ccc3c(c2)OCO3)OC(CCl)CS1 (centres undefined)
[1]
  T/C: 101 % of control
[2]
  T/C: 101 % of control
dose: 200.0 mg/kg/injection, schedule: Q01DX009 (ip), vehicle: saline with Tween-80
  T/C: 101 % of control

## CC(C)(C)C1=CC2(c3ccccn3)C(Cl)C(=O)N2NC(c2ccccn2)=N1 (centres undefined)
dose: 25.0 mg/kg/injection, schedule: Q01DX009 (ip), vehicle: other
  T/C: 98 % of control
dose: 50.0 mg/kg/injection, schedule: Q01DX009 (ip), vehicle: other
  T/C: 101 % of control
dose: 100.0 mg/kg/injection, schedule: Q01DX009 (ip), vehicle: other
  T/C: 98 % of control
dose: 200.0 mg/kg/injection, schedule: Q01DX009 (ip), vehicle: other
  T/C: 93 % of control

## C#CC(C)(C)NC(=O)c1cccnc1Oc1ccccc1
[3]
  T/C: 99 % of control
dose: 100.0 mg/kg/injection, schedule: Q01DX005 (ip), vehicle: saline with Tween-80
  T/C: 97 % of control
dose: 200.0 mg/kg/injection, schedule: Q01DX005 (ip), vehicle: saline with Tween-80
  T/C: 99 % of control

## C/C=C1\CN2CCC34c5ccccc5N(C(C)=O)C3C(C=O)C1CC24 (centres undefined)
dose: 7.88 mg/kg/injection, schedule: Q01DX005 (ip), vehicle: saline + Tween-80 + alcohol
  T/C: 101 % of control
dose: 15.75 mg/kg/injection, schedule: Q01DX005 (ip), vehicle: saline + Tween-80 + alcohol
  T/C: 109 % of control
dose: 31.5 mg/kg/injection, schedule: Q01DX005 (ip), vehicle: saline + Tween-80 + alcohol
  T/C: 103 % of control
dose: 63.0 mg/kg/injection, schedule: Q01DX005 (ip), vehicle: saline + Tween-80 + alcohol
  T/C: 103 % of control

## Cc1ccc(S(=O)(=O)OCCn2nc(C)c3c(C)cc(=O)oc32)cc1
[4]
  T/C: 103 % of control
[5]
  T/C: 107 % of control
[6]
  T/C: 100 % of control

## C=CCCCCCCCCCC(CCCCCC)C(=O)O (centres undefined)
dose: 50.0 mg/kg/injection, schedule: Q01DX001 (ip), vehicle: saline with Tween-80
  T/C: 91 % of control
dose: 100.0 mg/kg/injection, schedule: Q01DX001 (ip), vehicle: saline with Tween-80
  T/C: 100 % of control
dose: 200.0 mg/kg/injection, schedule: Q01DX001 (ip), vehicle: saline with Tween-80
  T/C: 95 % of control

## C=C(C)C(=O)OC1CC2OC2(C)CC(OC(=O)C(=C)C)C2C(=C)C(=O)OC2/C=C\1C (centres undefined)
dose: 5.0 mg/kg/injection, schedule: Q01DX009 (ip), vehicle: saline with Tween-80
  T/C: 90 % of control
dose: 10.0 mg/kg/injection, schedule: Q01DX009 (ip), vehicle: saline with Tween-80
  T/C: 90 % of control
dose: 20.0 mg/kg/injection, schedule: Q01DX009 (ip), vehicle: saline with Tween-80
  T/C: 100 % of control
dose: 40.0 mg/kg/injection, schedule: Q01DX009 (ip), vehicle: saline with Tween-80
  T/C: 86 % of control

## O=c1oc2ccccc2c2c1C(c1ccc3c(c1)OCO3)C=C(c1ccc3c(c1)OCO3)O2 (centres undefined)
dose: 25.0 mg/kg/injection, schedule: Q01DX009 (ip), vehicle: water
  T/C: 94 % of control
dose: 50.0 mg/kg/injection, schedule: Q01DX009 (ip), vehicle: water
  T/C: 94 % of control
dose: 100.0 mg/kg/injection, schedule: Q01DX009 (ip), vehicle: water
  T/C: 94 % of control
dose: 200.0 mg/kg/injection, schedule: Q01DX009 (ip), vehicle: water
  T/C: 92 % of control

## Cc1ccc(N2CCN(C(=O)C3=Cc4ccccc4OC3)CC2)cc1C
[7]
  T/C: 100 % of control
[8]
  T/C: 88 % of control

## O=CNC(Cc1ccccc1N(CCCl)CCCl)C(=O)O (centres undefined)
dose: 5.0 mg/kg/injection, schedule: Q04DX003 (ip), vehicle: other
  T/C: 198 % of control
dose: 5.0 mg/kg/injection, schedule: Q04DX003 (ip), vehicle: water
  T/C: 154 % of control
dose: 10.0 mg/kg/injection, schedule: Q04DX003 (ip), vehicle: other
  T/C: 261 % of control
dose: 10.0 mg/kg/injection, schedule: Q04DX003 (ip), vehicle: water
  T/C: 187 % of control
dose: 20.0 mg/kg/injection, schedule: Q04DX003 (ip), vehicle: other
  T/C: 293 % of control
dose: 20.0 mg/kg/injection, schedule: Q04DX003 (ip), vehicle: water
  T/C: 309 % of control
dose: 40.0 mg/kg/injection, schedule: Q04DX003 (ip), vehicle: water
  T/C: 113 % of control

## N#CCCSc1nnc(SCCC#N)s1
[4]
  T/C: 92 % of control
[5]
  T/C: 101 % of control
[6]
  T/C: 94 % of control
dose: 400.0 mg/kg/injection, schedule: Q01DX009 (ip), vehicle: Klucel (hydroxypropylcellulose) (HPC)
  T/C: 90 % of control

## CC1(C)CC(=O)C=C(NC2CCCCC2)C1
[1]
  T/C: 91 % of control
[2]
  T/C: 100 % of control

## CNC(=O)OCc1ccc(NCCN(C)C)c2c(=O)c3cc(O)ccc3sc12
[9]
  T/C: 112 % of control

## O=C1C2=C(Nc3ccccc3N2)OC1c1ccncc1 (centres undefined)
[10]
  T/C: 93 % of control
[11]
  T/C: 93 % of control
[12]
  T/C: 88 % of control

## O=C(O)C(O)C(Cl)(Cl)Cl (centres undefined)
dose: 25.0 mg/kg/injection, schedule: Q01DX009 (ip), vehicle: saline
  T/C: 107 % of control
dose: 50.0 mg/kg/injection, schedule: Q01DX009 (ip), vehicle: saline
  T/C: 96 % of control
dose: 100.0 mg/kg/injection, schedule: Q01DX009 (ip), vehicle: saline
  T/C: 88 % of control
dose: 200.0 mg/kg/injection, schedule: Q01DX009 (ip), vehicle: saline
  T/C: 91 % of control

## CCOC(=O)n1c(=O)oc2c(Br)cc(Br)cc21
dose: 50.0 mg/kg/injection, schedule: Q04DX002 (ip), vehicle: Klucel (hydroxypropylcellulose) (HPC)
  T/C: 96 % of control
dose: 100.0 mg/kg/injection, schedule: Q04DX002 (ip), vehicle: Klucel (hydroxypropylcellulose) (HPC)
  T/C: 99 % of control
dose: 200.0 mg/kg/injection, schedule: Q04DX002 (ip), vehicle: Klucel (hydroxypropylcellulose) (HPC)
  T/C: 93 % of control

## COc1ccc(/C=C2/C/C(=C/c3ccc(OC)cc3)C2=O)cc1
[7]
  T/C: 95 % of control
[8]
  T/C: 103 % of control
dose: 400.0 mg/kg/injection, schedule: Q04DX003 (ip), vehicle: Klucel (hydroxypropylcellulose) (HPC)
  T/C: 97 % of control

## CC1(C)OC(=O)N=C1c1ccccc1Cl
[10]
  T/C: 108 % of control
[11]
  T/C: 104 % of control
[12]
  T/C: 108 % of control

## CC1CN1P(=O)(c1ccccc1)N1CC1C (centres undefined)
[9]
  T/C: 108 % of control
dose: 12.5 mg/kg/injection, schedule: Q01DX005 (ip), vehicle: saline
  T/C: 100 % of control
dose: 25.0 mg/kg/injection, schedule: Q01DX005 (ip), vehicle: saline with Tween-80
  T/C: 100 % of control
dose: 25.0 mg/kg/injection, schedule: Q01DX005 (ip), vehicle: saline
  T/C: 95 % of control
[3]
  T/C: 104 % of control and 97 % of control
dose: 50.0 mg/kg/injection, schedule: Q01DX005 (ip), vehicle: saline
  T/C: 96 % of control
dose: 50.0 mg/kg/injection, schedule: Q01DX005 (ip), vehicle: suspension in saline
  T/C: 105 % of control
dose: 100.0 mg/kg/injection, schedule: Q01DX005 (ip), vehicle: suspension in saline
  T/C: 115 % of control

## CC(C)NC(=O)CN1C(=O)NC(C)(c2ccccc2)C1=O (centres undefined)
dose: 60.0 mg/kg/injection, schedule: Q01DX005 (ip), vehicle: saline with Tween-80
  T/C: 101 % of control
dose: 120.0 mg/kg/injection, schedule: Q01DX005 (ip), vehicle: saline with Tween-80
  T/C: 95 % of control
dose: 240.0 mg/kg/injection, schedule: Q01DX005 (ip), vehicle: saline with Tween-80
  T/C: 94 % of control

## N#CC1CCCC(Cc2ccccc2)(c2ccccc2)C1=O (centres undefined)
dose: 100.0 mg/kg/injection, schedule: Q01DX001 (ip), vehicle: Klucel (hydroxypropylcellulose) (HPC)
  T/C: 101 % of control
dose: 200.0 mg/kg/injection, schedule: Q01DX001 (ip), vehicle: Klucel (hydroxypropylcellulose) (HPC)
  T/C: 102 % of control
dose: 400.0 mg/kg/injection, schedule: Q01DX001 (ip), vehicle: Klucel (hydroxypropylcellulose) (HPC)
  T/C: 100 % of control

## COc1ccc(-c2nc(SCC(=O)O)n(-c3ccccn3)c2-c2ccc(OC)cc2)cc1
dose: 100.0 mg/kg/injection, schedule: Q01DX001 (ip), vehicle: water
  T/C: 100 % of control
dose: 200.0 mg/kg/injection, schedule: Q01DX001 (ip), vehicle: water
  T/C: 91 % of control
